In the supplement of paper PMC10307832:

Key:
Test in all cases: relative viability (nuclei count vs DMSO), 5 days (fraction); higher = more cells survive
NCI-H1703 = system: NCI-H1703
Outline: (§1)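 For relative viability, nuclei counts in treated wells were divided by those in vehicle wells. Lung cancer cell lines had been pin-tool dosed in 1536-well plates the day after seeding and cultured for 5 days, then fixed and stained in one step (final 0.05% Triton X-100, 1% formaldehyde, 1 ug/ml Hoechst) and imaged at 4×. Doses were one drug alone or a fixed anchor-drug dose plus five library-drug doses (not always all listed) in √10 steps, and values are duplicate-plate medians.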

NCI-H1299 = system: NCI-H1299
Outline: as §1

NCI-H1623 = system: NCI-H1623
Outline: as §1

Calu-6 = system: Calu-6
Outline: as §1

IA-LM = system: IA-LM
Outline: as §1

EBC-1 = system: EBC-1
Outline: as §1

NCI-H661 = system: NCI-H661
Outline: as §1

A549 = system: A549
Outline: as §1

NCI-H1648 = system: NCI-H1648
Outline: as §1

Structure (SMILES)	relative viability (NCI-H1703; first compound 0.04 µM)	relative viability (NCI-H1703; first compound 1.265 µM)	relative viability (NCI-H1703; first compound 4 µM)	relative viability (NCI-H1299; first compound 0.04 µM)	relative viability (NCI-H1299; first compound 0.1265 µM)	relative viability (NCI-H1299; first compound 0.4 µM)	relative viability (NCI-H1299; first compound 1.265 µM)	relative viability (NCI-H1299; first compound 4 µM)	relative viability (NCI-H1623; first compound 0.04 µM)	relative viability (NCI-H1623; first compound 0.1265 µM)	relative viability (NCI-H1623; first compound 0.4 µM)	relative viability (NCI-H1623; first compound 1.265 µM)	relative viability (NCI-H1623; first compound 4 µM)	relative viability (Calu-6; first compound 0.04 µM)	relative viability (Calu-6; first compound 0.1265 µM)	relative viability (NCI-H661; first compound 0.04 µM)	relative viability (NCI-H661; first compound 0.1265 µM)	relative viability (NCI-H661; first compound 0.4 µM)	relative viability (NCI-H661; first compound 1.265 µM)	relative viability (NCI-H661; first compound 4 µM)	also measured
Clc1ccc(Nc2nnc(Cc3ccncc3)c3ccccc23)cc1 [Vatalanib] + COc1cc2c(Oc3ccc(NC(=O)C4(C(=O)Nc5ccc(F)cc5)CC4)cc3F)ccnc2cc1OCCCN1CCOCC1 [Foretinib] (partner 0.25 µM)	0.323	0.34	0.363	1.1	1.07	1.15	1.11	1.11	0.816	0.861	0.794	0.854	0.783	0.967	0.765	1	1.04	1.07	0.975	0.989	relative viability (NCI-H1703; first compound 0.4 µM): 0.335; relative viability (Calu-6; first compound 0.4 µM): 0.926; relative viability (Calu-6; first compound 1.265 µM): 0.869; relative viability (Calu-6; first compound 4 µM): 0.813; relative viability (IA-LM; first compound 0.04 µM): 1.16; relative viability (IA-LM; first compound 0.1265 µM): 1.16; relative viability (IA-LM; first compound 0.4 µM): 1.05; relative viability (IA-LM; first compound 1.265 µM): 0.919; relative viability (IA-LM; first compound 4 µM): 1.06; relative viability (EBC-1; first compound 0.04 µM): 0.111; relative viability (EBC-1; first compound 0.1265 µM): 0.109; relative viability (EBC-1; first compound 0.4 µM): 0.0892; relative viability (EBC-1; first compound 1.265 µM): 0.0958; relative viability (EBC-1; first compound 4 µM): 0.118; relative viability (A549; first compound 0.04 µM): 1.06; relative viability (A549; first compound 0.1265 µM): 0.909; relative viability (A549; first compound 0.4 µM): 1.01; relative viability (A549; first compound 1.265 µM): 0.881; relative viability (A549; first compound 4 µM): 0.948
COc1cc(N2CCC(C(N)=O)CC2)ccc1Nc1nc(N)c(Cl)c(Nc2ccccc2S(=O)(=O)C(C)C)n1 [HG-5-88-01] + COc1cc2c(Oc3ccc(NC(=O)C4(C(=O)Nc5ccc(F)cc5)CC4)cc3F)ccnc2cc1OCCCN1CCOCC1 [Foretinib] (partner 0.25 µM)	0.41	0.275	0.331	1.05	1.11	1.1	1.07	1.1	0.925	0.906	0.845	–	0.773	0.865	0.879	1.01	1.05	1.1	1.03	1.09	relative viability (NCI-H1703; first compound 0.1265 µM): 0.349; relative viability (Calu-6; first compound 0.4 µM): 0.866; relative viability (Calu-6; first compound 1.265 µM): 0.793; relative viability (Calu-6; first compound 4 µM): 0.686; relative viability (IA-LM; first compound 0.04 µM): 1.28; relative viability (IA-LM; first compound 0.1265 µM): 1.22; relative viability (IA-LM; first compound 0.4 µM): 1.05; relative viability (IA-LM; first compound 1.265 µM): 0.885; relative viability (IA-LM; first compound 4 µM): 1.18; relative viability (EBC-1; first compound 0.04 µM): 0.0975; relative viability (EBC-1; first compound 0.4 µM): 0.12; relative viability (EBC-1; first compound 1.265 µM): 0.11; relative viability (EBC-1; first compound 4 µM): 0.105; relative viability (A549; first compound 0.04 µM): 0.984; relative viability (A549; first compound 0.1265 µM): 0.861; relative viability (A549; first compound 0.4 µM): 0.993; relative viability (A549; first compound 1.265 µM): 0.87; relative viability (A549; first compound 4 µM): 0.228
Clc1ccc(Nc2nnc(Cc3ccncc3)c3ccccc23)cc1 [Vatalanib] + COc1cccc2cc(-c3nc([C@H]4CC[C@H](C(=O)O)CC4)n4ncnc(N)c34)[nH]c12 [OSI-027] (partner 0.5 µM)	–	–	–	–	–	–	–	–	0.39	0.618	0.446	0.418	0.386	–	–	0.737	0.699	0.709	0.717	0.67	relative viability (NCI-H1648; first compound 0.04 µM): 0.258; relative viability (NCI-H1648; first compound 0.1265 µM): 0.265; relative viability (NCI-H1648; first compound 0.4 µM): 0.299; relative viability (NCI-H1648; first compound 1.265 µM): 0.238; relative viability (NCI-H1648; first compound 4 µM): 0.255
